Test results published in the CombiSolv-Exp solvation set (Vermeire and Green 2021).

Assay: solvent given as SMILES

CNC
Settings	solvation free energy, 298 K [kJ/mol]
in CCCCCC	-10.4
in CCCCCCCCCC	-9.67
in CCCCCCCCO	-11.4
in CCCO	-12.5
in CCO	-13.7
in CN(C)C=O	-12
in CO	-14.7
in ClC(Cl)(Cl)Cl	-12
in N#Cc1ccccc1	-11.7
in O	-18

O=S1(=O)CCCC1
Settings	solvation free energy, 298 K [kJ/mol]
in O	-36

CCOC(=O)c1ccccc1
Settings	solvation free energy, 298 K [kJ/mol]
in O	-15.6

CC(C)OC(C)C
Settings	solvation free energy, 298 K [kJ/mol]
in Brc1cccc2ccccc12	-14.6
in CC(=O)N(C)C	-14.3
in CC(=O)OCc1ccccc1	-14.6
in CC(C)CC(C)(C)C	-15.8
in CCC(C)=O	-16.3
in CCC(C)Cl	-17.4
in CCC(C)O	-15.7
in CCCCCCCC	-16.1
in CCCCCCCCCCO	-14.4
in CCCCCCCCO	-15.2
in CCCCCl	-17.5
in CCCCN(C=O)CCCC	-14.6
in CCCCO	-15.7
in CCCO	-15.9
in CCN1CCCC1=O	-13.5
in CCN(CC)C(C)=O	-14.7
in CCNC(C)=O	-13.9
in CCNC=O	-13.5
in CN1CCCCC1=O	-13.7
in CN(C)C=O	-13.3
in CNC(C)=O	-13.6
in CNC=O	-12.7
in CO	-16
in ClC(Cl)(Cl)Cl	-17.7
in [2H]O[2H]	-6.53
in c1ccc2ncccc2c1	-14.4

c1ccc2c(c1)OCCOCCOCCOCCOCCO2
Settings	solvation free energy, 298 K [kJ/mol]
in O	-74.8

ClCBr
Settings	solvation free energy, 298 K [kJ/mol]
in C1CCCCC1	-15.4
in ClC(Cl)(Cl)Cl	-16.4
in c1ccccc1	-18.1

CCCCCCCOC(=O)c1ccccc1C(=O)OCCCCC
Settings	solvation free energy, 298 K [kJ/mol]
in O	-28.4

CC1CCC(C(C)C)C(O)C1 (centres undefined)
Settings	solvation free energy, 298 K [kJ/mol]
in O	-13.4

CC(C)CCOC=O
Settings	solvation free energy, 298 K [kJ/mol]
in O	-8.91

CC(C)N
Settings	solvation free energy, 298 K [kJ/mol]
in CCCCCC	-11.6

O=C(O)c1cc([N+](=O)[O-])cc([N+](=O)[O-])c1
Settings	solvation free energy, 298 K [kJ/mol]
in C1CCOC1	-62.4
in C1COCCO1	-61.1
in CC(C)CCO	-57.9
in CC(C)CO	-57.4
in CC(C)O	-59.1
in CC(C)OC(C)C	-54.4
in CCC(C)O	-58.3
in CCCC(C)O	-58.2
in CCCCCCCCCCO	-56.9
in CCCCCCCCO	-57.3
in CCCCCCCO	-57.4
in CCCCCCO	-57.6
in CCCCCO	-58.1
in CCCCCOC(C)=O	-57.3
in CCCCO	-58.5
in CCCCOC(C)=O	-58.1
in CCCO	-59.3
in CCO	-60.5
in CCOC(C)=O	-59.4
in CCOCC	-58
in CN(C)C=O	-61.8
in O	-47.4

C=CCCCCC
Settings	solvation free energy, 298 K [kJ/mol]
in C1CCC2CCCCC2C1	-18.3
in C1CCC(C2CCCCC2)CC1	-18.1
in C=CCCCCCCCCCCCCCC	-17.4
in CC#N	-14.4
in CCC#N	-16.9
in CCCC#N	-15.8
in CCCCC(CC)COC(=O)CCCCC(=O)OCC(CC)CCCC	-16.9
in CCCCC(CC)COC(=O)c1ccccc1C(=O)OCC(CC)CCCC	-15.8
in CCCCCCC	-18.8
in CCCCCCCCC=CCCCCCCCC(=O)OCC(COC(=O)CCCCCCCC=CCCCCCCCC)OC(=O)CCCCCCCC=CCCCCCCCC	-17
in CCCCCO	-16.4
in CCCCOC(=O)c1ccccc1C(=O)OCCCC	-16.7
in CCCCOC(C)=O	-17.9
in CCN1CCCC1=O	-15.6
in CCOC(=O)c1ccccc1C(=O)OCC	-14.8
in CCOC(C)=O	-17
in CN1CCCC1=O	-14.5
in CN(C)C=O	-14.1
in CS(C)=O	-10.5
in N#CCCCCC#N	-11.7
in N#Cc1ccccc1	-16.4
in NC=O	-5.19
in NCCO	-6.82
in Nc1ccccc1	-13.6
in O	6.95
in O=C1CCCO1	-12.6
in O=CN1CCOCC1	-12.1
in O=Cc1ccco1	-13.4
in OCCO	-6.07
in OCCOCCO	-8.79
in OCCOCCOCCO	-9.5
in OCCOCCOCCOCCO	-10
in OCc1ccco1	-13
in c1ccc2c(c1)CCCC2	-18.3
in c1ccc(C2CCCCC2)cc1	-18

CCCC#N
Settings	solvation free energy, 298 K [kJ/mol]
in C=CCCCCCCCCCCCCCC	-14.8
in CC(C)(C)O	-19.5
in CC(C)CO	-19.1
in CC(C)O	-19.2
in CCC(C)O	-19.1
in CCCCCC	-15.7
in CCCCCCC	-15.4
in CCCCCCCCCCCCCCCC	-13.9
in CCCCCCCCCCO	-16.4
in CCCCCCCCCO	-17
in CCCCCCCCO	-17.7
in CCCCCCCO	-18.1
in CCCCCCO	-18.1
in CCCCCO	-18.7
in CCCCO	-19.3
in CO	-21.8
in O	-15.2
in [2H]O[2H]	-15

COC(=O)OC
Settings	solvation free energy, 298 K [kJ/mol]
in C1CCCCC1	-15.1
in CC(Cl)(Cl)Cl	-19.4
in CCC1CO1	-19.8
in CCCO	-15.6
in COC(C)(C)C	-17.7
in ClC(Cl)(Cl)Cl	-17.9
in ClCCCl	-21.1
in O	-14.8
in c1ccccc1	-19.5

CN(C)c1ccc(C(=O)O)cc1
Settings	solvation free energy, 298 K [kJ/mol]
in CN(C)C=O	-57.7
in O	-38.8

CCCC(C)(C)O
Settings	solvation free energy, 298 K [kJ/mol]
in CCCCCCCC	-19.2
in CCCCCCCCCC	-19
in O	-16.4

Clc1ccc2c(c1)Oc1c(Cl)c(Cl)c(Cl)c(Cl)c1O2
Settings	solvation free energy, 298 K [kJ/mol]
in O	-17.4

CCC(O)C(C)C (centres undefined)
Settings	solvation free energy, 298 K [kJ/mol]
in CC(C)CC(C)(C)C	-19
in CCCCCCCC	-19.7
in CCCCCCCCCC	-19.5
in O	-16.2

CCCN(CC1CC1)c1c([N+](=O)[O-])cc(C(F)(F)F)cc1[N+](=O)[O-]
Settings	solvation free energy, 298 K [kJ/mol]
in O	-10.3

CCc1ccccn1
Settings	solvation free energy, 298 K [kJ/mol]
in O	-18.1

CCCCCI
Settings	solvation free energy, 298 K [kJ/mol]
in O	-0.586

CCOCOCC
Settings	solvation free energy, 298 K [kJ/mol]
in CCCCCl	-19.5
in ClC(Cl)(Cl)Cl	-20.8
in ClCCl	-22.9
in O	-12.4

Nc1ccccc1-c1ccccc1
Settings	solvation free energy, 298 K [kJ/mol]
in O	-30.4

CCCCCCCCCCCCCCCCCCCCCCCC
Settings	solvation free energy, 298 K [kJ/mol]
in CC(=O)N(C)C	-68.5
in CC(C)(C)O	-61.1
in CC(C)O	-56.8
in CCC(C)=O	-61.8
in CCCCCCCCCCO	-63.7
in CCCCCCO	-59.5
in CCCCCO	-59
in CCCCO	-58.1
in CCCCOC(C)=O	-64.3
in CCCO	-57.6
in CCO	-56.2
in CN(C)C=O	-68.8
in CO	-51.4
in COC(C)(C)C	-68.2
in ClCCl	-66.9
in O	21.9

COc1ccc(NS(=O)(=O)c2ccc(N)cc2)nn1
Settings	solvation free energy, 298 K [kJ/mol]
in O	-88.4

Oc1cccc(Cl)c1
Settings	solvation free energy, 298 K [kJ/mol]
in CCCCCC	-27.3
in CCCCCCC	-27.2
in CCCCCCCC	-27.1
in CCCCCCCCCC	-27.1
in Cc1ccc(C)cc1	-33.3
in Cc1cccc(C)c1	-33.7
in Cc1ccccc1C	-33.8
in O	-27.7

CCN(N=O)C(C)C
Settings	solvation free energy, 298 K [kJ/mol]
in O	-22.8
